From patent publication US9393329B2, “N-alkoxyamide conjugates as imaging agents” (Lantheus Medical Imaging, Inc., priority 2009, dated 2016)

What was measured:
[1] = test system: aorta of apolipoprotein E (ApoE) knockout mouse; assay: In-vivo ApoE mouse aorta uptake studies; conditions: ApoE knockout mice on high-fat diet, 0.3-0.4 mCi/kg bolus via tail vein; for aorta:blood / aorta:heart: 60 min, ratio; for aorta uptake (% ID/g): tissue harvested at 60 min
Experimental: Mice were fed a high-fat diet to accelerate plaque formation and compounds were tested in the mice between 35-42 weeks on diet. Test compounds were administered at 0.3-0.4 mCi/kg to anesthetized mice in a single, bolus injection via the tail vein. Blood samples were collected via the tail between 0-30 min post injection for pharmacokinetic analysis and mice were euthanized by CO2 at 60 min for tissue harvesting. The aorta was first flushed with saline through the left ventricle exiting via the femoral vein then removed from the heart to the renal bifurcation; additional biological samples were also collected (blood, muscle, liver, kidney, bile, urine, heart, femur, reproductive organ, lung, spleen and innominate artery). All samples were weighed and assayed for radioactivity; uptake is expressed as a percentage of injected dose per gram of tissue (% ID/g).

[2] = test system: aorta bearing atherosclerotic plaque; assay: Ex-vivo blood vessel binding assay; design: species or system New Zealand white rabbits; conditions: 153Gd-labeled compound 0.135 μCi in phosphate buffered saline, plaque-bearing rabbit aorta sections, 2 h at 37° C., washed; percentage of initial activity
Experimental: Aorta bearing atherosclerotic plaque was obtained from New Zealand white rabbits that were balloon stripped along the abdominal aorta and placed on a high fat diet (0.5% cholesterol) for 16-22 weeks. Vascular injury was produced with a 4-F Fogarty catheter along the abdominal aorta and right iliofemoral artery. This procedure generates an accelerated complex lesion development with a lipid rich core covered by a fibrous cap in rabbits. Harvested aorta sections (0.5 cm) were incubated with 0.135 μCi of ^153Gd-labeled compound diluted in phosphate buffered saline (450 μL) for 2 h at 37° C. The supernatant was removed and analyzed by HPLC to assay compound stability. The tissue section was then washed with phosphate buffered saline (3×10 mL), then resuspended (10 mL) and incubated at 37° C. an additional 1 h. The supernatant was then removed, the washing process repeated and the tissue finally counted on a gamma counter. The amount of compound bound to the tissue was determined as a percentage of the initial activity according to the following formula: […]

Compound | aorta:blood [1] | aorta:heart [1] | aorta uptake (% ID/g) [1] [% ID/g] | % bound [2] [%]
CONC(=O)[C@@H](CCc1ccccc1)NCc1ccc(CNC(=O)CN2CCN(CC(=O)[O-])CCN(CC(=O)[O-])CCN(CC(=O)[O-])CC2)cc1.[153Gd+3] [Example 52] | 2.0 | 9.2 | 6.1 ± 1.2 | 6.9
O=C([O-])CN1CCN(CC(=O)[O-])CCN(CC(=O)NCc2ccc(CN[C@H](CCc3ccccc3)C(=O)NOCc3ccccc3)cc2)CCN(CC(=O)[O-])CC1.[153Gd+3] [Example 53] | 0.8 | 4.2 | 1.5 ± 0.1 | –
CONC(=O)C(N)Cc1ccc(CNC(=O)CN2CCN(CC(=O)[O-])CCN(CC(=O)[O-])CCN(CC(=O)[O-])CC2)cc1.[153Gd+3] (stereo not shown) [Example 54] | 1.2 | 5.3 | 2.5 ± 0.5 | –
NC(Cc1ccc(CNC(=O)CN2CCN(CC(=O)[O-])CCN(CC(=O)[O-])CCN(CC(=O)[O-])CC2)cc1)C(=O)NOCc1ccccc1.[153Gd+3] (stereo not shown) [Example 55] | 1.0 | 8.8 | 3.0 ± 2.3 | –
